From patent US9096663B2, “Compositions and methods for treating conditions related to ephrin signaling with cupredoxins and mutants thereof” (The Board of Trustees of the University of Illinois, priority 2001, dated 2015)

Assays:
Format in all cases: cell-based, human
Glioblastoma LN-229 = assay: MTT assay, glioblastoma LN-229; settings: 24 h; for induction of cell death, LN-229: 75 μM, 37° C.
Protocol: (§1) Cytotoxicity effects were determined by MTT assay. […] Percent cytotoxicity is expressed as percentage of ceil death as compared to that of untreated control (0% cytotoxicity).
(§2) Approximately 2×10^4 cells per well were seeded into 96-well culture plates in 100 μl of RPMI 1640 medium. […] After 24 or 48 h treatment, 10 μl of 5 mg/ml MTT solution was added to the culture and incubated for 1 h at 37° C. The MTT reaction was terminated by the addition of 40 mM HCl in isopropanol. The MTT formazan formed was measured spectrophotometrically as described earlier (Mosmann, 1983). Untreated control cells were compared to treated cells for determining viability and therefore a measure of cytotoxicity.

[1] = test system: MCF-7 breast cancer cells; assay: MCF-7 cell growth, cells counted in coulter counter
Protocol: The extent of cell growth inhibition was about 25% at 5 ug/ml of the 18-mer synthetic peptide as compared to untreated control.

Astrocytoma CCF-STTG1 = assay: MTT assay, astrocytoma CCF-STTG1; settings: 75 μM, 24 h, 37° C.
Protocol: as §1, §2

Row | Sequence | induction of cell death, LN-229 (Glioblastoma LN-229) | dose dependence of cytotoxicity, glioblastoma LN-229 (Glioblastoma LN-229; 10, 25, 50, 75, 100 μM) | inhibition of MCF-7 cell growth vs untreated control ([1]; 5 ug/ml) | inhibition of MCF-7 cell growth vs untreated cells ([1]; 50 ug/ml, 48 to 72 hours) [%] | induction of cell death, CCF-STTG1 (Astrocytoma CCF-STTG1)
1 | TFDVSKLKEGEQYMFFCT [Azu 96-113] | showed induction of cell death | increasing peptide concentrations led to increasing cytotoxicity | about 25% | 50 | showed induction of cell death
2 | VRIKLSTPGVYGVYCE [Plc 70-84] | showed induction of cell death |  |  |  | showed induction of cell death
